Reference: US7713956B2, “Dealkylated derivatives of pyrrolo[2,1-b]benzothiazepines with atypical antipsychotic activity” (Sigma-Tau Industrie Farmaceutiche Riunite S.p.A., priority 2004, dated 2010)
Where “and” joins values, the source holds several entries; their conditions need not be identical. Identical values can stand only once.

Experiments:
[1] = Pharmacokinetics after oral administration of a 60 μmol/kg dose in the rat; format: in vivo
Excerpt: Pharmacokinetics of the Compound ST1469 and its Corresponding Des Methyl Derivative ST2087
Effect of the Oral Administration of a 60 μmol/kg Dose of Each Product in the Rat
Administration of ST1469 in the Rat (Table 1).
Administration of ST2087 in the Rat (Table 1)

[2] = system: Male Fischer 344 rats; assay: Active Avoidance Test (conditioned avoidance response), oral treatment; format: in vivo, rat; conditions: for ED50 / effect on avoidance responses: oral; for ED50: 60 minutes prior to the test, rat, avoidance rate variable, read-out: ED50 (dose reducing avoidance responses by 50% compared to basal values); for effect on avoidance responses: over the active doses tested (ST1469 0.75-6 mg/kg; ST2087 2-8 mg/kg; ST2472 0.5-2 mg/kg)
Excerpt: Evaluation of the Antipsychotic Potency of ST1469 and ST1899 and their Respective Desmethyl Derivatives ST2087 and ST2472. Effect of Treatment in the Active Avoidance Test.
The administration of incremental doses of an antipsychotic drug in the rat causes the inhibition of the avoidance response and an increase in the number of escape responses without any increase in non-responses (failures). This modification of the avoidance behaviour of the animals is characteristic of the effect of the administration of a compound with antipsychotic activity, which selectively blocks the conditioned response within given dosage ranges. This behavioural assessment makes it possible to detect and determine the antipsychotic capacity of a product.
Male Fischer 344 rats weighing 180 g (Charles River) were used. The products ST1469 and ST2087 were administered to the animals orally, 60 minutes prior to the test. The product ST1469 was administered at doses of 0.75 mg/5 ml/kg (1.84 μmol/kg), 1.5 mg/5 ml/kg (3.69 μmol/kg), 3 mg/5 ml/kg (7.37 μmol/kg), and 6.0 mg/5 ml/kg (14.7 μmol/kg).
For the product ST2087 the following doses were used: 2 mg/5 ml/kg (6.25 μmol/kg), 3 mg/5 ml/kg (9.38 μmol/kg), 4 mg/5 ml/kg (12.50 μmol/kg), 6 mg/5 ml/kg ([…]) and 8 mg/5 ml/kg (25.01 μmol/kg).
To perform the avoidance behaviour assessment test, a piece of equipment (Ugo Basile) was used consisting of a plastic cage divided into two compartments by a partition wall with an opening in it allowing communication between the two sectors. Each of the two sectors can be illuminated by a 10-Watt lamp placed above a plexiglass cover covering the cage. A programming device permits the regulation of the duration and frequency of the un-conditioned and discriminatory stimuli, and a computerised system acquires the experimental data. During the study the discriminatory stimulus (light was delivered 3 seconds prior to the unconditioned stimulus (0.3 mA electric shock for 4 seconds). One test per minute was performed in each session making a total of 20 tests per day. One session per day administered.
The procedure consists in a 1 minute period of familiarisation of the rats in the test cage, followed by the series of tests the start of which is signalled by the light stimulus; the discriminatory stimulus is followed, a few seconds later, by the administration of an electric shock. The rats can avoid the shock by escaping into the adjoining compartment. The responses produced after switching on the light and before the electric shock interrupt the discriminatory stimulus and are considered “avoidances”; the responses produced during the shock period terminate both the discriminatory stimulus and the unconditioned stimulus and are considered “escapes”; non-avoidances are considered “failures”.
Prior to the treatment with the study compounds, the animals were selected in relation to their ability to acquire the task. Admitted to the test assessing the effect of treatment were those rats that produced at least 75% of avoidances in the basal tests.
The results were expressed as means and standard errors. On the basis of the number of conditioned responses (avoidances), the dose of product capable of reducing the value of this variable by 50% (ED50) compared to basal values was calculated by means of non-linear regression using the GraphPad Prism data analysis program.

[3] = In vitro metabolic stability / metabolic profile in rat hepatic microsomes; format: in vitro ADME, Rat (Sprague Dawley); conditions: for metabolic profile (metabolites formed): rat hepatic microsomes 0.5 mg/ml, 10 μg/ml test item, 37° C. up to 120 minutes
Experimental: (§1) In this study the metabolic profiles of ST1899 and its metabolite ST2472 were determined in rat, mouse and monkey microsomes.
(§2) ST1899 and ST2472 were separately incubated with the hepatic microsomes. Separate experiments were carried out for each animal species investigated. For each experiment, in addition to the test item, 7-ethoxycoumarin (Sigma-Aldrich) was also incubated as a probe for evaluating the metabolic activity of the microsomes: 7-hydroxycoumarin was identified on the basis of the retention times in comparison with those of synthesized standard and used as marker of oxidative metabolism Both the test item and the 7-ethoxycoumarin were incubated at 37° C. up to 120 minutes.
(§3) MgCl2, β-D-glucose-6-phosphate, βNADP and Glucose-6-phosphate dehydrogenase were used for preparing the NADPH regenerating solution (NRS). 250 μl of 0.1 M pH 7.4 KH2PO4 buffer, 100 μl of NRS and 50 μl of test item (or 7-ethoxycoumarin) standard solution were added to 2 ml Eppendorf test tubes. In the samples, incubated either without microsomes or test items, an equal volume of 0.1 M pH 7.4 KH2PO4 buffer was added.
(§4) The reaction was started by adding 100 μl of the microsomal suspension to the samples and stopped at selected times by adding 500 μl of methanol. Samples were shaken and centrifuged at 8000 RPM for 10 minutes at 4° C. Supernatants were used for the HPLC analysis. 7-ethoxycoumarin, ST1899 and ST2472 were analyzed according to the HPLC methods described below.

[4] = In vitro metabolic stability / metabolic profile in mouse hepatic microsomes; format: in vitro ADME, Mouse (CD1); conditions: for metabolic profile (metabolites formed): mouse hepatic microsomes 0.5 mg/ml, 10 μg/ml test item, 37° C. up to 120 minutes
Experimental: as §1, §2, §3, §4

[5] = In vitro metabolic stability / metabolic profile in monkey hepatic microsomes; format: in vitro ADME, Monkey (Cynomolgus); conditions: for metabolic profile (metabolites formed): monkey hepatic microsomes 0.5 mg/ml, 10 μg/ml test item, 37° C. up to 120 minutes
Experimental: as §1, §2, §3, §4

[6] = 60 umol/kg, analyte = administered product, oral 60 μmol/kg, rat, plasma, mean

Q: What does the source list for `Clc1ccc2c(c1)C(N1CCNCC1)Cn1cccc1S2` (racemic) [ST2087, (±)-7-chloro-9-(piperazin-1-yl)-9,10-dihydropyrrolo[2,1-b][1,3]-benzothiazepine]?
A: AUC [1, 6]: 32.2 µM·h; Cmax [1, 6]: 4.09 µM; half-life [1, 6]: 4.4 h; concentrations at the systemic level when administered as such ([1]; oral ST2087 60 μmol/kg versus ST2087 formed after ST1469, rat): much higher concentrations than those measured after its formation as a result of administration of ST1469; Tmax ([1]; rat, plasma, po, 60 umol/kg, analyte = administered product, oral 60 μmol/kg, mean): ≤ 2 h; ED50 [2]: 3.27 mg/kg and 10.2 µmol/kg; effect on avoidance responses [2]: capable of reducing the production of avoidance responses

Q: Which results are given for `CN1CCN(C2=Cn3cccc3Sc3ccccc32)CC1` [ST1899, 9-(4-methylpiperazin-1-yl)-pyrrolo[2,1-b]-[1,3]benzothiazepine, reference compound]?
A: ED50 [2]: 1.09 mg/kg and 3.66 µmol/kg; metabolic profile (metabolites formed) [3]: extensively metabolized to ST2472; metabolic profile (metabolites formed) [4]: metabolized mainly to M1; metabolic profile (metabolites formed) [5]: metabolized to ST2472 and to the metabolites M3 and M4

Q: With `C1=C(N2CCNCC2)c2ccccc2Sc2cccn21` [ST2472, 9-Piperazin-1-yl-pyrrolo[2,1-b][1,3]benzothiazepine] as the compound, how does the “effect on behaviour of the animals” value ([2]; ST2472 at 0.25 mg/kg (0.88 μmol/kg)) read?
A: does not significantly modify the behaviour of the animals

Q: What about the ED50 [2] of the same compound?
A: 1.43 mg/kg and 5.05 µmol/kg

Q: What about the “effect on avoidance responses” value [2] of the same compound?
A: causes a progressive reduction of the avoidance responses and an increase in escapes

Q: What about the “metabolic stability compared with ST1899” value ([3]; rat hepatic microsomes) of the same compound?
A: metabolically more stable than ST1899

Q: What about the “metabolic profile (metabolites formed)” value [3] of the same compound?
A: almost exclusively metabolized to M2

Q: And the “metabolic stability compared with ST1899” value ([4]; mouse hepatic microsomes)?
A: metabolically more stable than ST1899

Q: And the “metabolic profile (metabolites formed)” value [4]?
A: metabolized almost exclusively to M2

Q: What about the “metabolic stability compared with ST1899” value ([5]; monkey hepatic microsomes) of the same compound?
A: metabolically more stable than ST1899

Q: And the “metabolic profile (metabolites formed)” value [5]?
A: the main metabolite obtained was M3
